The results in this text go back to patent US6849660B1, “Antimicrobial biaryl compounds” (ISIS Pharmaceuticals, Inc., priority 2000, dated 2005).

For test [1], the system named is S. pyogenes. As to the kind of experiment: Minimum inhibitory concentration (MIC), S. pyogenes. Conditions: Streptococcus pyogenes. It is filed as cell-based. Here is the method: (§1) Bacterial Strains. The Streptococcus pyogenes strains, Klebsiella pneumoniae, Escherichia coli, Staphylococcus aureus, Enterococcus faecalis used in the antibacterial activity studies ATCC 14289, 49399, 13883, 25922, 13709, 29212, respectively, are obtained from the American Type Culture Collection, Rockville, Md. The strain E. coli imp- is a mutant strain of wild type E. coli with increased outer membrane permeability and was grown in LB broth at 37 ° C. S. pyogenes strain is grown in Todd-Hewitt broth. S. aureus is grown in trypticase soy broth, E. faecalis in Todd-Hewitt broth, wild type E. coli and K. pneumoniae, in nutrient broth.
(§2) Determination of Minimum Inhibitory Concentrations (MICs). The assays were carried out in […] volume in duplicate in 96-well clear flat-bottom plates. The bacterial suspension from an overnight culture growth in appropriate medium was added to a solution of test compound in 4% DMSO in water. Final bacterial inoculum was approximately 10^5-10^6 CFU/well. The percent growth of the bacteria in test wells relative to that observed for a well containing no compound was determined by measuring absorbance at 595 nm (A595) after 24 h. […] Both ampicillin and tetracycline is used as antibiotic-positive controls in each screening assay for S. pyogenes, E. coli imp-, E. coli, S. aureus, E. faecalis, K pneumoniae and P. vulgaris. Ciprofloxacin is used as an antibiotic positive control in each screening assay for P. aeruginosa.

Test [2] concerns E. coli S30 bacterial extract. The test is described as follows: Coupled bacterial transcription/translation assay (luciferase reporter). It is filed as biochemical. The procedure:
Coupled Bacterial Transcription/Translation Assay. The DNA template, pBestLuc™ (Promega), is a plasmid containing a reporter gene for firefly luciferase fused to a strong tac promoter and ribosome binding site. Messenger RNA from 1 μg pBestLuc was transcribed and translated in E. coli S30 bacterial extract in the presence or absence of test compound. Compounds were tested in a black 96 well microtiter plate with an assay volume of 35 μL. Each test well contained: 5 μL test compound, 13 μL S30 premix (Promega), 4 μL 10× complete amino acid mix (1 mM each), 5 μL E. coli S30 extract and 8 μL of 0.125 μg/μL pBestLuc™. The transcription/translation reaction was incubated for 35 minutes at 37° C. followed by detection of functional luciferase with the addition of 30 μL LucLite™ (Packard). Light output was quantitated on a Packard TopCount.
Background: In a reporter assay the amount or activity of a reporter protein is the signal.

Test [3] deals with E. coli. As to the kind of experiment: Minimum inhibitory concentration (MIC), E. coli. The class given is cell-based. Conditions: Escherichia coli, Table 6. Here is the method: as §1
as §2, with “Ciprofloxacin is used as an antibiotic positive control in each screening assay for P. aeruginosa.” left out

Test [4] relates to K. pneumoniae. As to the kind of experiment: Minimum inhibitory concentration (MIC), K. pneumoniae. The class given is cell-based. Conditions: Klebsiella pneumoniae, Table 6. Here is the method: as §1
as §2, with “Ciprofloxacin is used as an antibiotic positive control in each screening assay for P. aeruginosa.” left out

Test [5] concerns E. hirae. As to the kind of experiment: Minimum inhibitory concentration (MIC), E. hirae. The conditions noted are these: Enterococcus hirae, Table 6. It is filed as cell-based. Here is the method:
as §2

Test [6] relates to S. aureus. As to the kind of experiment: Minimum inhibitory concentration (MIC), S. aureus. The conditions noted are these: Staphylococcus aureus, Table 6. The class given is cell-based. The procedure: as §1
as §2, with “Ciprofloxacin is used as an antibiotic positive control in each screening assay for P. aeruginosa.” left out

Test [7] concerns 58 nucleotide fragment of E. coli 23S ribosomal RNA (23S rRNA). The test is described as follows: Mass-spec binding assay (ESI-FTICR-MS). The conditions noted are these: Table 5, amino acid spacer compounds; read-out: approx. Kd. Here is the method:
Binding affinity of test compounds to a 58 nucleotide fragment of E. coli 23S ribosomal RNA (23S rRNA) was determined using electrospray ionization Fourier transform ion cyclotron resonance mass spectrometry (ESI-FTICR-MS). The structure of the 23S rRNA fragment and its preparation is described by Conn et al (Science, 1999, 284(5417):1171) and Hinck et al (J. Mol. Biol., 1997, 274(1): 101) both incorporated herein by reference. The mass spec assay determined the exact chemical composition of ligands that bound to the target rRNA and determined relative or absolute dissociation (KD) of ligands for the target. In the first step of the assay, a mixture of 23S rRNA target and test compound were moved from solution into the gas phase by electrospray ionization. The FT-ICR mass spectrometer served as a parallel set of “scales”, simultaneously measuring the exact molecular masses of the small molecules that bound to the RNA with great accuracy. The mass measurement error for an RNA-ligand complex weighing 10 kDa equals the mass of an electron. At this level of mass accuracy, each compound in the mixture was “labeled” by its molecular formula and exact molecular mass. […]

Where [8] appears, read: S. pyogenes, Table 6, read-out: MIC.
The mark [9] stands for this setting: Table 5, amino acid spacer compounds.

pIC50, pKd: −log10 of the molar value. Values after ≈ are worked out from the molar mass of the structure shown. Like-named read-outs stand apart in the source and are kept apart here.

What is called MIC is the smallest concentration in the dilution series that meets the test's criterion for growth inhibition. On to `NCCC(NC(=O)c1ccc(-c2cccc(NC(=O)c3ccc4[nH]c(=O)c(=O)[nH]c4c3)c2)s1)C(=O)N1CCNCC1` (centres unmarked), for which the MIC in test [1] lay in the range of 50 to 100 µM (≈ 28.8 to 57.6 µg/mL).

As usually defined, the pIC50 is −log10 of the IC50, conventionally taken in molar units. A higher pIC50 goes with a low IC50. Compound `O=C(Nc1cccc(-c2ccc(C(=O)N3CCNCC3)s2)c1)c1ccc2[nH]c(=O)c(=O)[nH]c2c1` [drawing 51] had a pIC50 in test [2] (Table 4, heteroaryl compounds) of 4.60.

As to `O=C(Nc1cccc(-c2ccc(C(=O)N3CCNCC3)o2)c1)c1ccc2[nH]c(=O)c(=O)[nH]c2c1`, the pIC50 in test [2] (Table 4, heteroaryl compounds) was 4.60.

For `O=C(Nc1cccc(-c2nc(C(=O)N3CCNCC3)cs2)c1)c1ccc2[nH]c(=O)c(=O)[nH]c2c1`, the pIC50 in test [2] (Table 4, heteroaryl compounds) was 4.12. This pIC50 is 0.48 log units lower than that of the compound before.

Consider `CCn1cc(C(=O)Nc2cccc(-c3ccc(C(=O)N4CCNCC4)s3)c2)c(=O)c2ccc(C)nc21`, for which the MIC in test [3] is 50 to 100 µM (≈ 25.1 to 50.2 µg/mL); in test [4] it was 50 to 100 µM (≈ 25.1 to 50.2 µg/mL); in test [5], 50 to 100 µM (≈ 25.1 to 50.2 µg/mL); in test [1] (setting [8]), 25 to 50 µM (≈ 12.5 to 25.1 µg/mL); in test [6], 50 to 100 µM (≈ 25.1 to 50.2 µg/mL).

For the compound `O=c1[nH]c2ccc(S(=O)(=O)Nc3cccc(-c4ccc(CN5CCNCC5)s4)c3)cc2[nH]c1=O`, the pIC50 in test [2] (Table 4, heteroaryl compounds) was 4.10.

`O=C(c1ccc(-c2cccc(NS(=O)(=O)c3ccc4[nH]c(=O)c(=O)[nH]c4c3)c2)s1)N1CCNCC1` showed a pIC50 in test [2] (Table 4, heteroaryl compounds) of 4.10.

For the compound `O=C(Nc1ccc(-c2ccc(C(=O)N3CCNCC3)s2)cc1)c1ccc2[nH]c(=O)c(=O)[nH]c2c1`, the pIC50 in test [2] (Table 4, heteroaryl compounds) was 4.30.

As to `O=C(Nc1ccc(-c2ccc(C(=O)Nc3ccc(C(=O)N4CCNCC4)cc3)s2)cc1)c1ccc2[nH]c(=O)c(=O)[nH]c2c1`, in test [2] (Table 4, heteroaryl compounds), the negative-log IC50 (pIC50) was 4.52.

Consider `O=C(Nc1ccc(-c2ccc(CN3CCNCC3)s2)cc1)c1ccc2[nH]c(=O)c(=O)[nH]c2c1`, for which the negative logarithm of the IC50 (pIC50) in test [2] (Table 4, heteroaryl compounds) was 4.26.

For the compound `CCn1cc(C(=O)Nc2ccc(-c3ccc(C(=O)N4CCNCC4)s3)cc2)c(=O)c2ccc(C)nc21`, the MIC in test [3] and in test [1] (setting [8]) was 50 to 100 µM (≈ 25.1 to 50.2 µg/mL) in each case.

The compound `O=C(Nc1cccc(-c2ccc(S(=O)(=O)N3CCNCC3)s2)c1)c1ccc2[nH]c(=O)c(=O)[nH]c2c1` had a pIC50 in test [2] (Table 4, heteroaryl compounds) of 4.46.

Compound `O=C(Nc1cccc(-c2ccc(C(=O)N3CCC[C@H]3C(=O)N3CCNCC3)s2)c1)c1ccc2[nH]c(=O)c(=O)[nH]c2c1` showed a pIC50 in test [2] (Table 4, heteroaryl compounds) of 4.60.

Usually pKd stands for the negative decadic logarithm of the Kd, by convention in mol/L. `O=C(Nc1cccc(-c2ccc(C(=O)NCCC(=O)N3CCNCC3)s2)c1)c1ccc2[nH]c(=O)c(=O)[nH]c2c1` [Structure 3]: the pIC50 in test [2] (setting [9]) was 4.46. The pKd in test [7] was 3.86.

`O=C(CNC(=O)c1ccc2[nH]c(=O)c(=O)[nH]c2c1)Nc1cccc(-c2ccc(C(=O)N3CCNCC3)s2)c1` gave a pIC50 in test [2] (Table 4, heteroaryl compounds) of 4.00.

`O=C(Nc1cccc(-c2ccc(C(=O)N3CCNCC3)s2)c1)c1ccc2[nH]c(=O)c(=O)[nH]c2c1` [Structure 1]: in test [2] (setting [9]), the negative logarithm of the IC50 (pIC50) is 4.60. In test [7], the pKd is 4.10.
